Results on five molecules are retold here after patent US4716230A, “Certain bis(di-2 or 4-pyridyl-phosphino) alkanes #10 having anti-tumor properties” (Smithkline Beckman Corporation, priority 1986, dated 1987).

Where “and” joins values, the source holds several entries; their conditions need not be identical. Equal values may be shown once.

For one data set, the system named is P388 leukemia. The experiment in a line: in vivo ip P388 lymphocytic leukemia mouse model (increase in lifespan). The settings on record: mice bearing ip P388 leukemia; ip Days 1-5; figures separated by slashes are from separate experiments; active if ≥25 percent ILS. More on the design: species or system mouse (B6D2F1). The source says:
P388 lymphocytic leukemia is currently the most widely used animal tumor model for screening for antitumor agents and for detailed evaluation of active compounds. This tumor system is widely accepted as an antitumor agent screening tool because it is sensitive to virtually all of the clinically active antineoplastic agents; quantitative and reproducible; amenable for large-scale screening; and predictive for activity in other animal tumor models.
(§1) 10^6 P388 leukemia cells are inoculated ip in B6D2F1 mice. Twenty-four hours later, if the tumor inoculum proves to be free of bacterial contamination (as determined by 24 hours incubation in thioglycollate broth), animals are randomized into groups of 6 and housed in shoebox cages. The compound to be evaluated is dissolved in a minimal volume of either N,N-dimethylacetamide (DMA) or 95% ethanol (depending upon solubility). An equal volume of saline is added; if the drug comes out of solution an equal volume of polyethoxylated castor oil is added and then saline qs to a concentration such that the desired dose is delivered in 0.5 ml. The final concentration of DMA, ethanol and polyethoxylated castor oil is […]. Dilutions for lower doses are made with saline so there is a decreasing proportion of organic solvents in the vehicle with decreasing dosage. These vehicles provide soluble formulations (or suspensions). Formulations are prepared immediately prior to injection. The compound is administered ip on Days 1 through 5 (i.e. treatment is initiated 24 hrs after tumor inoculation). Each experiment includes three groups of 6 animals as untreated controls and animals treated with a positive control, cisplatin, at two dose levels. Animals are weighed as a group on Days 1, 5 and 9 and average weight change (Δwt.) is used as a reflection of toxicity. Each experiment also includes an inoculum titration--groups of 8 mice inoculated ip with 10^5 to […] P388 leukemia cells. The titration is used to calculate cell kill achieved by treatment with drugs. Animals are monitored daily for mortality and experiments are terminated after 45 days. The endpoint is median survival time (MST) and increase in lifespan (ILS) which is the percentage of increase in MST relative to untreated controls. Untreated controls inoculated ip with 10^6 P388 leukemia cells generally survive for a median of 9 or 11 days. A drug is considered active if it produces ≥25 percent ILS.
^(b) maximum increase in lifespan produced in mice bearing ip P388
leukemia (figures separated by slashes indicate data generated in seperat

A short description of data set [1]: maximally tolerated dose in mice, ip qD × 5 regimen. The conditions noted are these: mouse, in vivo, B6D2F female mice. As for the experimental part: as §1
^(a) maximally tolerated dose for B6D2F female mice on an ip qD

The conditions of data set [2]: Struck et al., J. Med. Chem., 9, 414-416 (1966); cited from earlier work.

In the case of `c1csc(P(CCP(c2cccs2)c2cccs2)c2cccs2)c1` [Compound 3, 1,2-Bis(di-2-thienylphosphino)ethane], the “ILS (max) (maximum increase in lifespan)” value with P388 leukemia is 60% and 55%. In addition, in data set [1], the maximal tolerated dose (MTD) (usually the largest dose that counted as tolerated) was 16 mg/kg.

On to `c1ccc(P(CCP(c2ccccn2)c2ccccn2)c2ccccn2)nc1` [Compound 1, 1,2-Bis(di-2-pyridylphosphino)ethane], for which the “ILS (max) (maximum increase in lifespan)” value in the data set on P388 leukemia was 30% and 20%. This molecule came in with an MTD in data set [1] of 16 mg/kg.

Regarding `c1cc(P(CCP(c2ccncc2)c2ccncc2)c2ccncc2)ccn1` [Compound 2, 1,2-Bis(di-4-pyridylphosphino)ethane], the “ILS (max) (maximum increase in lifespan)” value with P388 leukemia was 35% and 37%. Further, in data set [1], the MTD is 32 mg/kg.

Regarding `c1ccc(P(CCP(c2ccccc2)c2ccccc2)c2ccccc2)cc1` [1,2-bis(diphenylphosphino)ethane], the cytotoxic activity entry in data set [2] is reported as “cytotoxic activity”.

Consider `c1coc(P(CCP(c2ccco2)c2ccco2)c2ccco2)c1` [Compound 4, 1,2-Bis(di-2-furylphosphino)ethane], for which the “ILS (max) (maximum increase in lifespan)” value in the data set on P388 leukemia is 60% and 30% and 50%. Besides, the MTD in data set [1] is 64 mg/kg.
